Data reported in US6509328B1, “Glutamate receptor antagonists” (Hoffmann-La Roche Inc., priority 1999, dated 2003).

Structure (SMILES) | melting point
CCOC(=O)c1csc(-c2cccc(C3=Nc4ccc(-c5ccccc5F)cc4NC(=O)C3)c2)n1 [Example 154, 2-{3-[7-(2-Fluoro-phenyl)-4-oxo-4,5-dihydro-3H-benzo [b][1,4]diazepin-2-yl]-phenyl}-thiazole-4-carboxylic Acid Ethyl Ester] | 172 to 175 °C
CC(=O)N1CC=C(c2ccc3c(c2)NC(=O)CC(c2cccc(C#N)c2)=N3)CC1 [Example 47, 3-[7-(1-Acetyl-1,2,3,6-tetrahydro-pyridin-4-yl)-4-oxo-4,5-dihydro-3H-benzo [b][1,4]diazepin-2-yl]-benzonitrile] | 220 to 222 °C (dec.)
N#Cc1ccc(-c2ccc3c(c2)NC(=O)CC(c2cccc(C#N)c2)=N3)cc1 [Example 65, 3-[7-(4-Cyano-phenyl)-4-oxo-4,5-dihydro-3H-benzo [b][1,4]diazepin-2-yl]-benzonitrile] | 240 °C (dec.)
CCOC(=O)c1csc(-c2cccc(C3=Nc4ccc(-c5ccc(F)cc5)cc4NC(=O)C3)c2)n1 [Example 153, 2-{3-[7-(4-Fluoro-phenyl)-4-oxo-4,5-dihydro-3H-benzo [b][1,4]diazepin-2-yl]-phenyl}-thiazole-4-carboxylic Acid Ethyl Ester] | 236 to 238 °C (dec.)
N#Cc1ccc(F)c(C2=Nc3ccc(-c4ccccc4F)cc3NC(=O)C2)c1 [Example 103, 4-Fluoro-3-[7-(2-fluoro-phenyl)-4-oxo-4,5-dihydro-3H-benzo [b][1,4]diazepin-2-yl]-benzonitrile] | 239 °C
Nc1cccc(C2=Nc3ccc(-c4ccc(F)cc4)cc3NC(=O)C2)c1 [Example 70, 4-(3-Amino-phenyl)-8-(4-fluoro-phenyl)-1,3-dihydro-benzo [b][1,4]diazepin-2-one] | 210 to 217 °C (dec.)
Cc1ccccc1-c1ccc2c(c1)NC(=O)CC(c1sccc1Cl)=N2 [Example 34, 4-(3-Chloro-thiophen-2-yl)-8-o-tolyl-1,3-dihydro-benzo [b][1,4]diazepin-2-one] | 247 to 248 °C (dec.)
N#Cc1cccc(C2=Nc3ccc(C#Cc4ccc(F)cc4)cc3NC(=O)C2)c1 [Example 145, 3-[7-(4-Fluoro-phenylethynyl)-4-oxo-4,5-dihydro-3H-benzo [b][1,4]diazepin-2-yl]-benzonitrile] | 245 to 246 °C
COc1ccc(-c2ccc3c(c2)NC(=O)CC(c2cccc(C#N)c2)=N3)cc1 [Example 6, 3-[7-(4-Methoxy-phenyl)-4-oxo-4,5-dihydro-3H-benzo[b][1,4]diazepin-2-yl]-benzonitrile] | 236 to 237 °C (dec.)
CC(C)(C)OC(=O)N1CC=C(C#Cc2ccc3c(c2)NC(=O)CC(c2cccc(C#N)c2)=N3)CC1 [Example 139, 4-[2-(3-Cyano-phenyl)-4-oxo-4,5-dihydro-3H-benzo [b][1,4]diazepin-7-ylethynyl]-3,6-dihydro-2H-pyridine-1-carboxylic acid tert.-butyl ester] | 239 °C
O=C1CC(c2sccc2Cl)=Nc2ccc(-c3ccccn3)cc2N1 [Example 23, 4-(3-Chloro-thiophen-2-yl)-8-pyridin-2-yl-1,3-dihydro-benzo[b][1,4]diazepin-2-one] | 220 to 225 °C (dec.)
N#Cc1cccc(C2=Nc3ccc(CCc4ccccc4)cc3NC(=O)C2)c1 [Example 108, 3-(4-Oxo-7-phenethyl-4,5-dihydro-3H-benzo[b][1,4]diazepin-2-yl)-benzonitrile] | 212 to 214 °C

Further lines, results first:

melting point | Structure (SMILES)
207 to 208 °C | COc1ccc(-c2ccc3c(c2)NC(=O)CC(c2cccc(-n4ccnc4)c2)=N3)cc1 [Example 61, 4-(3-Imidazol-1-yl-phenyl)-8-(4-methoxy-phenyl)-1,3-dihydro-benzo [b][1,4]diazepin-2-one]
237 to 240 °C (dec.) | N#Cc1cccc(C2=Nc3ccc(C#Cc4ccc(Cl)cc4)cc3NC(=O)C2)c1 [Example 16, 3-[7-(4-Chloro-phenylethynyl)-4-oxo-4,5-dihydro-3H-benzo[b][1,4]diazepin-2-yl]-benzonitrile]
205 to 210 °C (dec.) | N#Cc1cccc(C2=Nc3ccc(-c4ccco4)cc3NC(=O)C2)c1 [Example 8, 3-(7-Furan-2-yl-4-oxo-4,5-dihydro-3H-benzo[b][1,4]diazepin-2-yl)-benzonitrile]
184 °C | N#Cc1cccc(C2=Nc3ccc(C#CC4=CCNCC4)cc3NC(=O)C2)c1 [Example 140, 3-[4-Oxo-7-(1,2,3,6-tetrahydro-pyridin-4-ylethynyl)-4,5-dihydro-3H-benzo [b][1,4]diazepin-2-yl]-benzonitrile]
240 to 244 °C (dec.) | N#Cc1cccc(C2=Nc3ccc(-c4ccccc4Cl)cc3NC(=O)C2)c1 [Example 33, 3-[7-(2-Chloro-phenyl)-4-oxo-4,5-dihydro-3H-benzo [b][1,4]diazepin-2-yl]-benzonitrile]
213 to 214 °C | N#Cc1cccc(C2=Nc3ccc(C#Cc4ccccc4F)cc3NC(=O)C2)c1 [Example 131, 3-[7-(2-Fluoro-phenylethynyl)-4-oxo-4,5-dihydro-3H-benzo[b][1,4]diazepin-2-yl]-benzonitrile]
244 to 250 °C (dec.) | N#Cc1cccc(C2=Nc3ccc(-c4ccc(Cl)cc4)cc3NC(=O)C2)c1 [Example 15, 3-[7-(4-Chloro-phenyl)-4-oxo-4,5-dihydro-3H-benzo[b][1,4]diazepin-2-yl]-benzonitrile]
187 °C | Cc1nccn1-c1cccc(C2=Nc3ccc(-c4ccccc4F)cc3NC(=O)C2)c1 [Example 81, 8-(2-Fluoro-phenyl)-4-[3-(2-methyl-imidazol-1-yl)-phenyl]-1,3-dihydro-benzo[b][1,4]diazepin-2-one]
92 °C | Cc1cn(-c2cccc(C3=Nc4ccc(-c5ccccc5F)cc4NC(=O)C3)c2)c(C)n1 [Example 101, 4-[3-(2,4-Dimethyl-imidazol-1-yl)-phenyl]-8-(2-fluoro-phenyl)-1,3-dihydro-benzo[b][1,4]diazepin-2-one]
210 °C | Cc1cn(-c2cccc(C3=Nc4ccc(C#Cc5ccc(F)cc5)cc4NC(=O)C3)c2)cn1 [Example 78, 8-(4-Fluoro-phenylethynyl)-4-[3-(4-methyl-imidazol-1-yl)-phenyl]-1,3-dihydro-benzo [b][1,4]diazepin-2-one]
198 °C | O=C1CC(c2cccc(-n3cnnc3)c2)=Nc2ccc(-c3ccccc3F)cc2N1 [Example 99, 8-(2-Fluoro-phenyl)-4-(3-[1,2,4]triazol-4-yl-phenyl)-1,3-dihydro-benzo [b][1,4]diazepin-2-one]
236 to 239 °C (dec.) | Cc1ccc(C#Cc2ccc3c(c2)NC(=O)CC(c2cccc(C#N)c2)=N3)cc1 [Example 3, 3-(4-Oxo-7-p-tolylethynyl-4,5-dihydro-3H-benzo[b][1,4]diazepin-2-yl)-benzonitrile]
201 to 203 °C | O=C1CC(c2cccc(-n3ccnc3)c2)=Nc2ccc(C#Cc3ccccc3F)cc2N1 [Example 63, 8-(2-Fluoro-phenylethynyl)-4-(3-imidazol-1-yl-phenyl)-1,3-dihydro-benzo [b][1,4]diazepin-2-one]
229 to 231 °C (dec.) | N#Cc1cccc(C2=Nc3ccc(C#Cc4ccccn4)cc3NC(=O)C2)c1 [Example 26, 3-(4-Oxo-7-pyridin-2-ylethynyl-4,5-dihydro-3H-benzo[b][1,4]diazepin-2-yl)-benzonitrile]
